The values below come from ChEMBL document CHEMBL5505966, “Synthesis and pharmacological characterization of conformationally restricted 2-amino-Adipic acid analogs and carboxycyclopropyl glycines as selective metabotropic glutamate 2 receptor agonists” (Eur J Med Chem, 2024).

For test [1], the target named is Metabotropic glutamate receptor 2 (Rattus norvegicus) (UniProt P31421). The test can be described thus: Antagonist activity at rat mGluR2 receptor expressed in HEK293 cells by IP-1 HTRF assay. The test is classed as functional, cell-based. On the technique in general: TR-FRET usually uses a lanthanide donor and a delayed reading to cut background.
Chain of Metabotropic glutamate receptor 2 (Rattus norvegicus) (P31421 19-872 limits assumed): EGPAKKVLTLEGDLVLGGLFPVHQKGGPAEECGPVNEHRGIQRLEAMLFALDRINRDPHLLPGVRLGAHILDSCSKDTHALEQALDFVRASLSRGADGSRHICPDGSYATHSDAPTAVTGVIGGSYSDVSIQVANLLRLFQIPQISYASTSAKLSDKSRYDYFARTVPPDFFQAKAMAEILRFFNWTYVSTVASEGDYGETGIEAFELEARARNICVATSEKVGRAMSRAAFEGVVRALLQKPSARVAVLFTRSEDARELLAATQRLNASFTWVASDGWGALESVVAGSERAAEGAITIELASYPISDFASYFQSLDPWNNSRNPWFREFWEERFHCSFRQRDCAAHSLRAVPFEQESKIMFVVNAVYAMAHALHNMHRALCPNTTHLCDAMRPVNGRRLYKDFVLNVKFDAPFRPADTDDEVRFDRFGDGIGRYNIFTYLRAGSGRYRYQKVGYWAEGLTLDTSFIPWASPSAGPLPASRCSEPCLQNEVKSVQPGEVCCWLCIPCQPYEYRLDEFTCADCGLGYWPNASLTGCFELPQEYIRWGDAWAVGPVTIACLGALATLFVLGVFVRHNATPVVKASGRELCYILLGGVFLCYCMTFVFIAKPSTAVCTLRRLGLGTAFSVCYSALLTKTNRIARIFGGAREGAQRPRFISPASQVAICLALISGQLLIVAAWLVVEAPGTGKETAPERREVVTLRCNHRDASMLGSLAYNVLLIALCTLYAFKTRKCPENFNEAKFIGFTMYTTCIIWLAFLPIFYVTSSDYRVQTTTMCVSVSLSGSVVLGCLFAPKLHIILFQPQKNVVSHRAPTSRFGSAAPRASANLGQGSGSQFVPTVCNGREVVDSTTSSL
For test [2], the target named is Metabotropic glutamate receptor 4 (Rattus norvegicus) (UniProt P31423). The test can be described thus: Agonist activity at rat mGluR4 receptor expressed in HEK293 cells at 100 uM by IP-1 HTRF assay. The format is functional, cell-based.
Chain of Metabotropic glutamate receptor 4 (Rattus norvegicus) (P31423 whole entry): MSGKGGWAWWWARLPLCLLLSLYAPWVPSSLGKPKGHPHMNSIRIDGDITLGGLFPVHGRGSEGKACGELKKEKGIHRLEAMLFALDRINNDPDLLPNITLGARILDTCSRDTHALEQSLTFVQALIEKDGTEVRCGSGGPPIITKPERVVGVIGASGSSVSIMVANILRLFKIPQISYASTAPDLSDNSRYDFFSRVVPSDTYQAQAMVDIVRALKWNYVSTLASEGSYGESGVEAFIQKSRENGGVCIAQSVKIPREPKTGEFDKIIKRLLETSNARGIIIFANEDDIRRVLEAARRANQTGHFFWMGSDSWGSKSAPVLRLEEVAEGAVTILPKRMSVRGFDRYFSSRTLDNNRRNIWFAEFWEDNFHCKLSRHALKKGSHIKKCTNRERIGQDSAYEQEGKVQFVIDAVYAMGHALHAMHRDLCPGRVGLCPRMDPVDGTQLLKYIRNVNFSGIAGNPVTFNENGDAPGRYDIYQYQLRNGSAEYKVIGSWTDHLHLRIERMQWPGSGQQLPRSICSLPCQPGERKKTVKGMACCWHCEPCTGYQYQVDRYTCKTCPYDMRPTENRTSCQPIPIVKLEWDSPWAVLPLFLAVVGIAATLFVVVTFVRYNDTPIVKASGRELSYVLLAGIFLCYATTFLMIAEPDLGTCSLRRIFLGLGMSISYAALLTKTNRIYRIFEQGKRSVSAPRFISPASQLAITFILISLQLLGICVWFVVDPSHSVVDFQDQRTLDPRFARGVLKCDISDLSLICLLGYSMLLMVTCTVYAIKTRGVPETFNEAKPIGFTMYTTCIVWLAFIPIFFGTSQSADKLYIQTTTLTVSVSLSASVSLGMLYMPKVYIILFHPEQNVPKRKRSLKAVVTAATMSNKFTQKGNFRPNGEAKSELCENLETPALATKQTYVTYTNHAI
The target of test [3] is Metabotropic glutamate receptor 6 (Rattus norvegicus) (UniProt P35349). In words: Agonist activity at rat mGluR6 receptor expressed in HEK293 cells at 100 uM by IP-1 HTRF assay. The test is classed as functional, cell-based.
Test [4] has the same target. The test can be described thus: Antagonist activity at rat mGluR6 receptor expressed in HEK293 cells by IP-1 HTRF assay. The test is classed as functional, cell-based.
Test [5] concerns the target Metabotropic glutamate receptor 1 (Rattus norvegicus) (UniProt P23385). In words: Agonist activity at rat mGluR1 receptor expressed in HEK293 cells at 100 uM by IP-1 HTRF assay. The format is functional, cell-based.
For test [6], the target named is Metabotropic glutamate receptor 5 (Rattus norvegicus) (UniProt P31424). The test can be described thus: Antagonist activity at rat mGluR5 receptor expressed in HEK293 cells by IP-1 HTRF assay. The format is functional, cell-based.
Chain of Metabotropic glutamate receptor 5 (Rattus norvegicus) (P31424 21-1203 limits assumed): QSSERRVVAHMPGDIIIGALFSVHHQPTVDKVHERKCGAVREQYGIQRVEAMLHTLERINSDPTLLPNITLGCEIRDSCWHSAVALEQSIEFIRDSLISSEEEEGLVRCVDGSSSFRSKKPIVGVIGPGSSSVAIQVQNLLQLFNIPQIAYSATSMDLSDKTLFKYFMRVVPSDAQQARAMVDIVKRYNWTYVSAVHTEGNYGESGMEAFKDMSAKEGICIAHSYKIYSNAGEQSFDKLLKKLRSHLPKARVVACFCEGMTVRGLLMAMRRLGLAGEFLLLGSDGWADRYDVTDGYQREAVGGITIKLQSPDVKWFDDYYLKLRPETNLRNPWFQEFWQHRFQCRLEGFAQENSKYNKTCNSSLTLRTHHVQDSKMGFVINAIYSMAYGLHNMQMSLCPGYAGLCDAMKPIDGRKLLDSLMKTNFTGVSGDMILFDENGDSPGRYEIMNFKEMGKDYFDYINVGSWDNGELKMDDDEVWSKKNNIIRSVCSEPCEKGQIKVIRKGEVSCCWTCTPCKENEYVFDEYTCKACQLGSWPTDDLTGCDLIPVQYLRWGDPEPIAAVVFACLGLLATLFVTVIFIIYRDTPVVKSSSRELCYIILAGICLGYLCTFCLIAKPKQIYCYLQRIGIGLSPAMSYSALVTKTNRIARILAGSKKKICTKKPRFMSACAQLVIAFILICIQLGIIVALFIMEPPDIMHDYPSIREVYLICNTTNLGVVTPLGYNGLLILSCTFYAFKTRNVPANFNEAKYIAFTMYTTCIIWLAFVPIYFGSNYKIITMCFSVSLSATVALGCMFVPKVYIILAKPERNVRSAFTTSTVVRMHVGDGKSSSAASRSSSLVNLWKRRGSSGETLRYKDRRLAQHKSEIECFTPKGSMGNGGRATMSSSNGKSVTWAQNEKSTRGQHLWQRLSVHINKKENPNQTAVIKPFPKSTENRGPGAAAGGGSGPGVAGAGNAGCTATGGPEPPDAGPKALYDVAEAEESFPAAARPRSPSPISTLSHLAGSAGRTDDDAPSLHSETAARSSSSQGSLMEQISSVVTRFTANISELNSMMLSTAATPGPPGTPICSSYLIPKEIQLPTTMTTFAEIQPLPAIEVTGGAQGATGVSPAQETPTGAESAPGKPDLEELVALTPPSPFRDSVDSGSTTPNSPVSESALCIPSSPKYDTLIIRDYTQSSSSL
For test [7] the target is unchanged. The test can be described thus: Agonist activity at rat mGluR5 receptor expressed in HEK293 cells at 100 uM by IP-1 HTRF assay. The test is classed as functional, cell-based.
The target of test [8] is Metabotropic glutamate receptor 4 (Rattus norvegicus) (UniProt P31423). The test can be described thus: Antagonist activity at rat mGluR4 receptor expressed in HEK293 cells by IP-1 HTRF assay. The format is functional, cell-based.
Test [9] addresses Metabotropic glutamate receptor 2 (Rattus norvegicus, UniProt P31421). In words: Agonist activity at rat mGluR2 receptor expressed in HEK293 cells by IP-1 HTRF assay. The format is functional, cell-based.
For test [10], the target named is Metabotropic glutamate receptor 1 (Rattus norvegicus) (UniProt P23385). In words: Antagonist activity at rat mGluR1 receptor expressed in HEK293 cells by IP-1 HTRF assay. The format is functional, cell-based.
For test [11], the target named is Metabotropic glutamate receptor 3 (Rattus norvegicus) (UniProt P31422). In words: Antagonist activity at rat mGluR3 receptor expressed in HEK293 cells by IP-1 HTRF assay. The test is classed as functional, cell-based.
Test [12] concerns the target Metabotropic glutamate receptor 7 (Rattus norvegicus) (UniProt P35400). The test can be described thus: Agonist activity at rat mGluR7 receptor expressed in HEK293 cells at 100 uM by IP-1 HTRF assay. The test is classed as functional, cell-based.
The target of test [13] is Metabotropic glutamate receptor 3 (Rattus norvegicus) (UniProt P31422). In words: Agonist activity at rat mGluR3 receptor expressed in HEK293 cells at 100 uM by IP-1 HTRF assay. The test is classed as functional, cell-based.
For test [14], the target named is Metabotropic glutamate receptor 7 (Rattus norvegicus) (UniProt P35400). In words: Antagonist activity at rat mGluR7 receptor expressed in HEK293 cells by IP-1 HTRF assay. The format is functional, cell-based.
The target of test [15] is Metabotropic glutamate receptor 8 (Rattus norvegicus) (UniProt P70579). In words: Antagonist activity at rat mGluR8 receptor expressed in HEK293 cells by IP-1 HTRF assay. The test is classed as functional, cell-based.
Chain of Metabotropic glutamate receptor 8 (Rattus norvegicus) (P70579 whole entry): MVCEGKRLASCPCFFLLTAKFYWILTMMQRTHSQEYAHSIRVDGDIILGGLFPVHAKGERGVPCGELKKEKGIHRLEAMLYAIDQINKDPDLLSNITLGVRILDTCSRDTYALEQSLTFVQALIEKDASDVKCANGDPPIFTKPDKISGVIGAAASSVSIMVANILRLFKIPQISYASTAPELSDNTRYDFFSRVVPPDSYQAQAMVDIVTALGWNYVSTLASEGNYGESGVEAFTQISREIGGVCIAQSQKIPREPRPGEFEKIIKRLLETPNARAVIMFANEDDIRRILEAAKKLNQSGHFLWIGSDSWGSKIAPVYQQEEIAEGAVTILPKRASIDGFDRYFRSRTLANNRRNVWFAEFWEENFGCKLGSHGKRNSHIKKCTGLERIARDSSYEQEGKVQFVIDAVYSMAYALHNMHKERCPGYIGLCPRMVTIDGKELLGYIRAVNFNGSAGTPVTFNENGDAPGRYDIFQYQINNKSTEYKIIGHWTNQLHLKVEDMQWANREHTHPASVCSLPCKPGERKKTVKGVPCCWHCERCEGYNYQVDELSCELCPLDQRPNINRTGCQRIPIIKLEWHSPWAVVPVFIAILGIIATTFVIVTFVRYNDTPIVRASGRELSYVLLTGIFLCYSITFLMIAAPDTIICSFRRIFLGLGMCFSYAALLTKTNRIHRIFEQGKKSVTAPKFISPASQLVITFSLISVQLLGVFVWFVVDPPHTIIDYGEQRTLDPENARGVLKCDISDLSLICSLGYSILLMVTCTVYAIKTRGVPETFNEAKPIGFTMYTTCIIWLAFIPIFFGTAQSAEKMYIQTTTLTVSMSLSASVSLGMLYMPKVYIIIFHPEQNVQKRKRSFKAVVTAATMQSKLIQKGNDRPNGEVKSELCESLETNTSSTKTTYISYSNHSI
Test [16] has the same target. In words: Agonist activity at rat mGluR8 receptor expressed in HEK293 cells at 100 uM by IP-1 HTRF assay. The test is classed as functional, cell-based.
The target in test [17] is Metabotropic glutamate receptor 2 (Rattus norvegicus) (UniProt P31421). In words: Agonist activity at rat mGluR2 receptor expressed in HEK293 cells at 100 uM by IP-1 HTRF assay. The test is classed as functional, cell-based.
For test [18], the target named is Metabotropic glutamate receptor 2 (Homo sapiens, UniProt Q14416). The test can be described thus: Agonist activity at human recombinant mGluR2 receptor assessed as inhibition of forskolin-stimulated [3H]cAMP accumulation incubated for 20 mins by SPA kit analysis. The format is functional. (Changes in cAMP serve as a functional read-out for many G protein-coupled receptors.)

In test [19] the target is Metabotropic glutamate receptor 3 (Homo sapiens, UniProt Q14832). In words: Agonist activity at human recombinant mGluR3 receptor assessed as inhibition of forskolin-stimulated [3H]cAMP accumulation incubated for 20 mins by SPA kit analysis. The format is functional.
The target of test [20] is Metabotropic glutamate receptor 8 (Rattus norvegicus, UniProt P70579). The test can be described thus: Agonist activity at rat mGluR8 receptor expressed in HEK293 cells by IP-1 HTRF assay. The format is functional, cell-based.
Chain of Metabotropic glutamate receptor 8 (P70579 whole entry): as above
The target in test [21] is Metabotropic glutamate receptor 1 (Rattus norvegicus, UniProt P23385). In words: Agonist activity at rat mGluR1 receptor expressed in HEK293 cells by IP-1 HTRF assay. The test is classed as functional, cell-based. As to conditions: read-out: EC50.
Test [22] deals with Metabotropic glutamate receptor 7 (Rattus norvegicus, UniProt P35400). In words: Agonist activity at rat mGluR7 receptor expressed in HEK293 cells by IP-1 HTRF assay. The test is classed as functional, cell-based.
The target in test [23] is Metabotropic glutamate receptor 4 (Rattus norvegicus, UniProt P31423). The test can be described thus: Agonist activity at rat mGluR4 receptor expressed in HEK293 cells by IP-1 HTRF assay. The test is classed as functional, cell-based.
Chain of Metabotropic glutamate receptor 4 (P31423 whole entry): as the sequence (P31423 whole entry) above
For test [24], the target named is Metabotropic glutamate receptor 5 (Rattus norvegicus, UniProt P31424). In words: Agonist activity at rat mGluR5 receptor expressed in HEK293 cells by IP-1 HTRF assay. The test is classed as functional, cell-based. The conditions noted are these: read-out: EC50.
Test [25] deals with Metabotropic glutamate receptor 6 (Rattus norvegicus, UniProt P35349). In words: Agonist activity at rat mGluR6 receptor expressed in HEK293 cells by IP-1 HTRF assay. The test is classed as functional, cell-based. As to conditions: read-out: EC50.
Test [26] has as its target Metabotropic glutamate receptor 3 (Rattus norvegicus, UniProt P31422). In words: Agonist activity at rat mGluR3 receptor expressed in HEK293 cells by IP-1 HTRF assay. The format is functional, cell-based.

The source made the active and inactive calls. No cut-off for these calls is given here.

Chain of Metabotropic glutamate receptor 2 (Rattus norvegicus, UniProt P31421) (P31421 whole entry): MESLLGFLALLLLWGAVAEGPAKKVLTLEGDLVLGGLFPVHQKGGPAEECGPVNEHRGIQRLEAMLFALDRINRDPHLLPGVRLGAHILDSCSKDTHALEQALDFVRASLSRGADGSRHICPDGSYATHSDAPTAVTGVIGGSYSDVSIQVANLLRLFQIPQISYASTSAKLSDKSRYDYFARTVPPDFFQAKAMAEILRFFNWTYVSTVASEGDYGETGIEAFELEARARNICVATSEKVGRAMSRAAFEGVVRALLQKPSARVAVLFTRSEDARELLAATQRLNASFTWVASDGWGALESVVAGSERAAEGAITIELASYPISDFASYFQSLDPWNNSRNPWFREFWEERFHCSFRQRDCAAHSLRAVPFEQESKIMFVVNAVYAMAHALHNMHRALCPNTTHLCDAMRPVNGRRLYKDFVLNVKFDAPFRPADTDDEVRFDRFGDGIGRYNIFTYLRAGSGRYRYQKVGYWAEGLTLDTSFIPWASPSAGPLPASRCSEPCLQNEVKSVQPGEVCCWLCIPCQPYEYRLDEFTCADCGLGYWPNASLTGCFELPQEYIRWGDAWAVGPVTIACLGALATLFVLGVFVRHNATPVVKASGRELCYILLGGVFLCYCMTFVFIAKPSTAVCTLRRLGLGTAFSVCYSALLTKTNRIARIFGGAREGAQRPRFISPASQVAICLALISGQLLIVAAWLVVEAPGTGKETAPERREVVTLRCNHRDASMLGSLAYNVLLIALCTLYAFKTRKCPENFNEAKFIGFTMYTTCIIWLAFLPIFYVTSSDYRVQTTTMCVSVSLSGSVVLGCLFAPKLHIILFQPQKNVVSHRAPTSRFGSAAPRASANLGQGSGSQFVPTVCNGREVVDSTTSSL

In the case of `C[C@@]1(C(=O)O)C[C@@H]1C[C@H](N)C(=O)O` (mixture of isomers), the inhibition result in test [1], in test [4], in [6], in [8], in [10] and in test [11] was “inactive” throughout. Besides, the inhibition result in test [14] and in test [15] was “inactive” throughout. The outcome in test [2], in test [3], in test [5], in test [7], in [12] and in [13] was inactive. Moreover, the outcome in test [16] was inactive. Also, the EC50 in test [9] (read-out: EC50) was 10 µM; in [9] (read-out: pEC50 (converted)), 15.8 µM.
Take `N[C@@H](C[C@H]1C[C@@H]1C(=O)O)C(=O)O`: the inhibition entry in test [1], in test [4], in [6], in test [8], in test [10] and in test [11] was “inactive” each time. The inhibition entry in test [14] and in [15] was “inactive” each time. In addition, the result in test [2], in [3], in test [5], in test [7], in [12] and in [13] was inactive. For the same molecule, the outcome in test [16] and in test [17] was inactive.
On to `C[C@H]1[C@H](C(=O)O)[C@H]1[C@H](N)C(=O)O`, for which the EC50 is 0.008 µM in [18] and 0.038 µM in [19].
The like results for `N[C@H](C(=O)O)[C@H]1C[C@@H]1C(=O)O` were, in that order, 0.3 µM and 0.6 µM.
On to `CC[C@@]1(C(=O)O)C[C@H]1[C@H](N)C(=O)O`, for which the EC50 in test [20] was more than 30 µM; in test [21], more than 30 µM; in test [22], more than 30 µM; in test [9] (read-out: EC50), 1.8 µM; in test [9] (read-out: pEC50 (converted)), 1.82 µM; in [23], more than 30 µM. Also, the values for the EC50 in test [24], in test [25] and in test [26] were more than 30 µM, 26.3 µM and more than 30 µM, respectively. In addition, the inhibition entry in test [1], in [4], in test [6], in test [8], in test [10] and in test [11] was “inactive” each time. Further, the inhibition entry in [14] and in [15] was “inactive” throughout.
Turning to `N[C@@H](CCP(=O)(O)O)C(=O)O`, the EC50 in test [20] was approximately 30 µM; in test [22], approximately 30 µM; in test [23], approximately 30 µM; in [25], 2.5 µM.
